Data as given in patent publication US8211412B2, “Method for skin whitening” (Shiseido Company Ltd., priority 2009, dated 2012).

Tested on: Mouse B16 melanoma cells
Experiment: Melanin production inhibition test
Assay type: cell-based
Conditions: 3 days after addition, graded by minimum non-cytotoxic concentration at which ratio of melanin amount was 80% or less
Protocol: A test for melanin production inhibition by the compounds of the formula (1) was conducted. The test method is as follows.
Melanin Production Inhibition Test
(1) Inoculation of Cells and Addition of Test Substances
Mouse B16 melanoma cells were inoculated in a six well plate at 100,000 cells/well. The next day, test substance solutions (solvent: DMSO) were added.
(2) Cell Proliferation Test
Three days after the addition of the test substance solution, the medium was removed by aspiration. Then 1 ml of EMEM medium containing 10% Alamar Blue solution was added, and a reaction was allowed to proceed at 37° C. After 30 minutes, 100 μL of the reaction mixture was transferred to a 96 well plate and fluorescence was measured at an excitation wavelength of 544 nm and a measurement wavelength of 590 nm. Using the value thus measured as a relative value of cell count, a ratio of the cell count (% cell count) of the test substance-added group to the test substance-absent group (group in which only the solvent was added) was calculated. […] It was determined that a compound having the % cell count of 80% or more was non-cytotoxic, and that a compound having the % cell count of less than 80% was cytotoxic.
(3) Quantification of Melanin
The cells after the cell proliferation test were washed with PBS three times, and then lysed by addition of 200 μL of 1M NaOH to measure an absorbance at 475 nm. […]

Compound: CC1(C)CSC(Nc2ccccc2)=N1 [Compound 1, 4,4-dimethyl-N-phenyl-4,5-dihydrothiazol-2-amine]
- Inhibitory effect on melanin production: ⊚ (the minimum concentration for inhibition of melanin production was 1 ppm or less)
